Assay results published in ChEMBL document CHEMBL5465560, “Selectivity Literature for EUbOPEN Chemogenomic Library” (2024).

Columns and labels:
[1] = molecular target: RAC-beta serine/threonine-protein kinase (Homo sapiens) (UniProt P31751); details: at 10 µM
[2] = molecular target: Histone-lysine N-methyltransferase, H3 lysine-36 specific (Homo sapiens) (UniProt Q96L73); experiment: Selectivity interaction (Methyltransferase screen (Scintillation proximity assays)) EUB0000255b NSD1
[3] = molecular target: Serine/threonine-protein kinase 16 (Homo sapiens, UniProt O75716); experiment: Selectivity interaction (ProQinase) EUB0000171b STK16
Chain of Serine/threonine-protein kinase 16 (O75716 whole entry): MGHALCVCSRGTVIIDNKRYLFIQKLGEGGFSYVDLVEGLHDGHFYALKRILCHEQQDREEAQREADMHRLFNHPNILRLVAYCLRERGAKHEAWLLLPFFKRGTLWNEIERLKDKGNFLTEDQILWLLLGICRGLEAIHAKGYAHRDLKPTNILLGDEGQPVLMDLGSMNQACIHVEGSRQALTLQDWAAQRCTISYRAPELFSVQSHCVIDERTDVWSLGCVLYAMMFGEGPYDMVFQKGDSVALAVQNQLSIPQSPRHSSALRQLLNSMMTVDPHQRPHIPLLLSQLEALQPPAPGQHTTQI

[4] = molecular target: T1, Serine/threonine-protein kinase LATS1 (Homo sapiens) (UniProt O95835); experiment: Selectivity interaction (Kinase panel (KiNativ target engagement assay in Jurkat cells)) EUB0001635a LATS1; type: cell-based; details: at 1 µM
T1 sequence (whole entry): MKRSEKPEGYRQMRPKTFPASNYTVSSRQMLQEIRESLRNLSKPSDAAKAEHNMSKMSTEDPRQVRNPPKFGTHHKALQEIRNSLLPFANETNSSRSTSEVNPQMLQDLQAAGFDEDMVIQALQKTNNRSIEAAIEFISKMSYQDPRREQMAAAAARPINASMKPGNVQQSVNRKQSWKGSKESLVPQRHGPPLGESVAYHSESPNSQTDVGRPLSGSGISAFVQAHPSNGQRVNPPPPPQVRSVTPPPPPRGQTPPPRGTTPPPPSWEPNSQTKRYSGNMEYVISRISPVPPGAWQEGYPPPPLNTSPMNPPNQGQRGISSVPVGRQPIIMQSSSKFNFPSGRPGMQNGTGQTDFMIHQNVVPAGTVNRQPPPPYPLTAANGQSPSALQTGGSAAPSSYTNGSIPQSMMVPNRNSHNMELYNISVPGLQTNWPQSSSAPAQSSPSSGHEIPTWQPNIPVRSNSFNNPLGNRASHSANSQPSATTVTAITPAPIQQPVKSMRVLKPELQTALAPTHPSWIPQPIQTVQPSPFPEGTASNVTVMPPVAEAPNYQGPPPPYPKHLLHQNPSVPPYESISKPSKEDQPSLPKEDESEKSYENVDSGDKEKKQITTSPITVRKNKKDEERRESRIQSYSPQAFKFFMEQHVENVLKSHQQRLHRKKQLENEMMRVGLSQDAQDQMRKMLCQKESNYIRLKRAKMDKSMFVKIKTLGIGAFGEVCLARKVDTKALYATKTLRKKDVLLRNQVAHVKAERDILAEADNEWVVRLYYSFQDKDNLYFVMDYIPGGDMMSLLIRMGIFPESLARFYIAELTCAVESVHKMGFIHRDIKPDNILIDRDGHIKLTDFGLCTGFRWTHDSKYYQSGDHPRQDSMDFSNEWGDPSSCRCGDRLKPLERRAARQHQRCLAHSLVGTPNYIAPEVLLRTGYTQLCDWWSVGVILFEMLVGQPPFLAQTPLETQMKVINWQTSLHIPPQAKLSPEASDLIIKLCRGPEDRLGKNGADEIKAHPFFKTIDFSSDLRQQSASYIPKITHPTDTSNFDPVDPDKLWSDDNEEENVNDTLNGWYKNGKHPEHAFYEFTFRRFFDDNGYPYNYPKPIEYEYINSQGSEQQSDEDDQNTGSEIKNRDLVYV

[5] = molecular target: Eukaryotic elongation factor 2 kinase (Homo sapiens, UniProt O00418)
[6] = molecular target: Tyrosine-protein kinase CSK (Homo sapiens) (UniProt P41240); experiment: Selectivity interaction (ActivX KiNativ screen (kinase selectivity in THP-1 cell lysates)) EUB0000639a CSK; type: subcellular; details: lysate, at 0.04 µM
Chain of Tyrosine-protein kinase CSK (Homo sapiens) (P41240 2-450 limits assumed): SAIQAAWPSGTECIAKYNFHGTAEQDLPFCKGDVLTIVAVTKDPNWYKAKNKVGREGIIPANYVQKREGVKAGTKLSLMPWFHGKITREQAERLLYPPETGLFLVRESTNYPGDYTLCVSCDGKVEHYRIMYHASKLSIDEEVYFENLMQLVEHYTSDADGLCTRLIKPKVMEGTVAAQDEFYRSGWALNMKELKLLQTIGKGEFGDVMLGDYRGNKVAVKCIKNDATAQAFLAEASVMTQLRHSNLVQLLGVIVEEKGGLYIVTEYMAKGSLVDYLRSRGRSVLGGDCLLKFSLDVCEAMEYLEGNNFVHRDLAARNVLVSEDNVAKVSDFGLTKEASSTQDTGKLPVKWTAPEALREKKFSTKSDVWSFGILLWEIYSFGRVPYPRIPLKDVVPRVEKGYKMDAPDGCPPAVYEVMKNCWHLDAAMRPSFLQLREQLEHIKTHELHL

[7] = molecular target: Serine/threonine-protein kinase 10 (Homo sapiens) (UniProt O94804); experiment: Selectivity interaction (ActivX KiNativ screen (kinase selectivity in THP-1 cell lysates)) EUB0000639a STK10; type: subcellular; details: lysate, at 0.2 µM
[8] = molecular target: Serine/threonine-protein kinase PRP4 homolog (Homo sapiens) (UniProt Q13523); experiment: Selectivity interaction (ActivX KiNativ screen (kinase selectivity in THP-1 cell lysates)) EUB0000639a PRPF4; type: subcellular; details: lysate, at 0.2 µM
[9] = molecular target: Activin receptor type-2B (Homo sapiens) (UniProt Q13705); experiment: Selectivity interaction (KinomeScan (DiscoverX)) EUB0000607a ACVR2B; details: at 10 µM
Chain of Activin receptor type-2B (Homo sapiens) (Q13705 whole entry): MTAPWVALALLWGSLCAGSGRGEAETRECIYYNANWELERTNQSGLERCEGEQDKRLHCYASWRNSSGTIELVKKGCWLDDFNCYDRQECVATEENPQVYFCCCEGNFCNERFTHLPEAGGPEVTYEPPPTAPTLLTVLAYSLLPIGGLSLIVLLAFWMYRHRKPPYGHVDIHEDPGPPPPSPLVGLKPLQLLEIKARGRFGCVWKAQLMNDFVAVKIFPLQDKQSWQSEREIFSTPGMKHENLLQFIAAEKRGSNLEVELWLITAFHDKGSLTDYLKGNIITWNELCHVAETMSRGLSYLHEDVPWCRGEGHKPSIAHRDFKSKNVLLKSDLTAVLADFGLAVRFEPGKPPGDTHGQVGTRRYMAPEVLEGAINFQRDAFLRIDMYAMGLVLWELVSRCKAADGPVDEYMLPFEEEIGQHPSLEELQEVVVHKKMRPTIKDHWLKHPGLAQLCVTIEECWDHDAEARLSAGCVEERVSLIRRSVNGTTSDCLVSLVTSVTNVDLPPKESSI

[10] = molecular target: T2, Homeodomain-interacting protein kinase 4 (Homo sapiens) (UniProt Q8NE63); experiment: Selectivity interaction (SelectScreen profiling (Invitrogen)) EUB0000607a HIPK4; details: at 2 µM
T2 sequence (whole entry): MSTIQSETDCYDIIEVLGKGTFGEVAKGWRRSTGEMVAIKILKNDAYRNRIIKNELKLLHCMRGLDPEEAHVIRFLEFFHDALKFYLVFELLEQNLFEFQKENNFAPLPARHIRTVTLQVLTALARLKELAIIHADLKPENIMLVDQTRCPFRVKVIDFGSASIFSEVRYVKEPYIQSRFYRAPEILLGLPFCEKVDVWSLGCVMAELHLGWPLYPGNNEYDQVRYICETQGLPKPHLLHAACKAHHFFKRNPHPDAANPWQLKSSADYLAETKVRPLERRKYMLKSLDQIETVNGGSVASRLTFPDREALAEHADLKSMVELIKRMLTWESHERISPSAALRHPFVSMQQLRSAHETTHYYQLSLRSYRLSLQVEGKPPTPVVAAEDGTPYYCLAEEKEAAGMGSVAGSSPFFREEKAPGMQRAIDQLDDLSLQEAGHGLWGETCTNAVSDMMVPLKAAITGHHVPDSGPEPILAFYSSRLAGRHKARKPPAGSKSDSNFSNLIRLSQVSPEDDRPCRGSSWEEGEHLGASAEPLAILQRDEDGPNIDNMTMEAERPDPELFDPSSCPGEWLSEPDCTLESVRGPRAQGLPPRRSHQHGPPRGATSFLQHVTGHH

[11] = molecular target: T3, Dual specificity mitogen-activated protein kinase kinase 3 (Homo sapiens) (UniProt P46734); experiment: Selectivity interaction (KinomeScan (DiscoverX)) EUB0000695a MAP2K3; details: at 100 nM
T3 sequence (whole entry): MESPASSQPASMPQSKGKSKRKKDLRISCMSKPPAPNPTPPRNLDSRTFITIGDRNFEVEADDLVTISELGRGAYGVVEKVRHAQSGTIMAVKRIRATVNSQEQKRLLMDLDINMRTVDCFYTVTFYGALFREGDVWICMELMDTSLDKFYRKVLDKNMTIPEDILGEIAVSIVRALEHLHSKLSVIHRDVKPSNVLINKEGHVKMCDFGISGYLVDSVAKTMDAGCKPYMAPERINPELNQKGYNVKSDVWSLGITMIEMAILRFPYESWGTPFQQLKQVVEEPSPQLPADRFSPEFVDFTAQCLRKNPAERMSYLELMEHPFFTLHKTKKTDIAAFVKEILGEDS

[12] = molecular target: Bone morphogenetic protein receptor type-1B (Homo sapiens, UniProt O00238); experiment: Selectivity interaction (KinomeScan (DiscoverX)) EUB0000045b BMPR1B
Chain of Bone morphogenetic protein receptor type-1B (O00238 whole entry): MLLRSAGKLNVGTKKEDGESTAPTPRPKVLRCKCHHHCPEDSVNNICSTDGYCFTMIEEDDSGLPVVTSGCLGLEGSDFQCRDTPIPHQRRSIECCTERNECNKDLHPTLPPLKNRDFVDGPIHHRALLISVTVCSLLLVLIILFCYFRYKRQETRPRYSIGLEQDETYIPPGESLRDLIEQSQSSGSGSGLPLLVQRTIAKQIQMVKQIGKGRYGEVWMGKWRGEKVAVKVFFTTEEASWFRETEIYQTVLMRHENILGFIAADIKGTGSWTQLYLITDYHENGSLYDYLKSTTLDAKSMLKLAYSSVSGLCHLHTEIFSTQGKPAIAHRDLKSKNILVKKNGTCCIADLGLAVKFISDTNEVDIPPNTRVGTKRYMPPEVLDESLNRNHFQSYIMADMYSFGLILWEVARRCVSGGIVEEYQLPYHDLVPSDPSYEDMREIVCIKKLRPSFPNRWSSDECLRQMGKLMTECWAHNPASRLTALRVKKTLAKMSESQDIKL

Chain of Histone-lysine N-methyltransferase, H3 lysine-36 specific (Homo sapiens) (Q96L73 whole entry): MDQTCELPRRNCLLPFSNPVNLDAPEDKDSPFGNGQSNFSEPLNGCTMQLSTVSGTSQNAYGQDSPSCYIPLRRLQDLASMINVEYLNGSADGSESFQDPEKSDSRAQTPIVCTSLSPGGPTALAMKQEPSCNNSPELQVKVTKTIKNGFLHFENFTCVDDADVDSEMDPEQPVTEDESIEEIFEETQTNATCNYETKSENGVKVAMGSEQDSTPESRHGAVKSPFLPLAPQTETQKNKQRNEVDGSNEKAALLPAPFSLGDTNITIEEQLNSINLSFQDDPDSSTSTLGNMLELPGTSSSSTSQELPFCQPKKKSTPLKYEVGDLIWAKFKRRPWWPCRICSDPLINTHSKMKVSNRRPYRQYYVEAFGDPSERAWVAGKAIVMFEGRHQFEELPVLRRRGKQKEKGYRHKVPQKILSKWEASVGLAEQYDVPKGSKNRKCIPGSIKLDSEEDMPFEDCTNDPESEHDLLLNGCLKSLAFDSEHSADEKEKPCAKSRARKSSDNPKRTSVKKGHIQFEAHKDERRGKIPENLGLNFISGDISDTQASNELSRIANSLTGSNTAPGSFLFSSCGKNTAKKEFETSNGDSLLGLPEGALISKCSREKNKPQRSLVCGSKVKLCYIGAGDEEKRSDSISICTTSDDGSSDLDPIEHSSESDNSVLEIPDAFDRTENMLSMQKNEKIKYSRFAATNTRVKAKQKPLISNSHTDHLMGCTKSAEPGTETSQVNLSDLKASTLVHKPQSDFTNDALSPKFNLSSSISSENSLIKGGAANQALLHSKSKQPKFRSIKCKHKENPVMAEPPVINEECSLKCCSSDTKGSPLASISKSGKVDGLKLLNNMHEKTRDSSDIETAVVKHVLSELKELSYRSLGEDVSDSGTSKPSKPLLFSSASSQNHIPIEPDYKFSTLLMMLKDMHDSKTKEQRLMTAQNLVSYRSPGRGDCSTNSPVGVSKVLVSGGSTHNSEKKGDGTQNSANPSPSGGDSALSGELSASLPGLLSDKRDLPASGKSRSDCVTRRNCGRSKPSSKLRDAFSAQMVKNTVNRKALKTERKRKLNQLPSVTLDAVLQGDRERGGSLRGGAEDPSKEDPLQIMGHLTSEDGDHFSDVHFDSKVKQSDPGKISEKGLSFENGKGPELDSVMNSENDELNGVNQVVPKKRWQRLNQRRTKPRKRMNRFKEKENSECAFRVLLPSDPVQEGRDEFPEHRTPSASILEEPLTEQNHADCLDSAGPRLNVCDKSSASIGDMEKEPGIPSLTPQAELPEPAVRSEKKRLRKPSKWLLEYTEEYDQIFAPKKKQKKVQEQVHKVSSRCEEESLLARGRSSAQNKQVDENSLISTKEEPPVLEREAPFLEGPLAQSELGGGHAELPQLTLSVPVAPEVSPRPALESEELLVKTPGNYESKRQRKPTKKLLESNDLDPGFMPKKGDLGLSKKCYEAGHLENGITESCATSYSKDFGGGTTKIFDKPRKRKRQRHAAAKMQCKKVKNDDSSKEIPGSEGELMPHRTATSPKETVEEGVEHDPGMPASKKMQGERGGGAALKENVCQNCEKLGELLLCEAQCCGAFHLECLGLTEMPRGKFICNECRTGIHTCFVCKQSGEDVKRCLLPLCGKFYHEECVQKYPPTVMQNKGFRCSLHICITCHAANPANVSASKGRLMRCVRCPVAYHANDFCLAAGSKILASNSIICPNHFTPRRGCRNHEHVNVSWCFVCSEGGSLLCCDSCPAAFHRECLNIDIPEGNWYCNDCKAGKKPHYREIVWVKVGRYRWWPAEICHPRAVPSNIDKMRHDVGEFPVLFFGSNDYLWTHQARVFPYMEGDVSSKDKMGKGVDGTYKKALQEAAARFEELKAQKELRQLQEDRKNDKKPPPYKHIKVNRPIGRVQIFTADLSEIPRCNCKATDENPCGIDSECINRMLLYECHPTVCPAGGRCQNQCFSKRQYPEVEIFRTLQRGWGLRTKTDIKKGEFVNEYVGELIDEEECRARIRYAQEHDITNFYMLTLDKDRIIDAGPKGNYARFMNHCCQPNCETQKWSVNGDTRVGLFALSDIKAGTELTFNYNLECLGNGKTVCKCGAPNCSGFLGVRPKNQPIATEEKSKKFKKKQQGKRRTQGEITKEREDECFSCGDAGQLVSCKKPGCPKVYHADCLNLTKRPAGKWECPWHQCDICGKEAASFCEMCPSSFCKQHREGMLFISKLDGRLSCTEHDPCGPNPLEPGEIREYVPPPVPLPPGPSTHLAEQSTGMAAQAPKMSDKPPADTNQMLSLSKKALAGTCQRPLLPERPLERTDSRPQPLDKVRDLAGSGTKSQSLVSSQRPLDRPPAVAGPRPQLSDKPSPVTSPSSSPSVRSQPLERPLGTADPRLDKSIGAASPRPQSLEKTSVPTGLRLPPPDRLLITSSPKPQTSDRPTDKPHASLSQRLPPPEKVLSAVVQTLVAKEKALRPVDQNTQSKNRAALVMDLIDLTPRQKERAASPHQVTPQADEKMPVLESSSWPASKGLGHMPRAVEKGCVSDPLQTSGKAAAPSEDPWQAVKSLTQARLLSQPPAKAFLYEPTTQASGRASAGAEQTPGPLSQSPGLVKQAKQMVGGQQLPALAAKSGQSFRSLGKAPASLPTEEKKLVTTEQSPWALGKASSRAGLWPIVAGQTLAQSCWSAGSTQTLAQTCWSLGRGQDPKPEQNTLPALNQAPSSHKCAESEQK
Chain of RAC-beta serine/threonine-protein kinase (Homo sapiens) (P31751 whole entry): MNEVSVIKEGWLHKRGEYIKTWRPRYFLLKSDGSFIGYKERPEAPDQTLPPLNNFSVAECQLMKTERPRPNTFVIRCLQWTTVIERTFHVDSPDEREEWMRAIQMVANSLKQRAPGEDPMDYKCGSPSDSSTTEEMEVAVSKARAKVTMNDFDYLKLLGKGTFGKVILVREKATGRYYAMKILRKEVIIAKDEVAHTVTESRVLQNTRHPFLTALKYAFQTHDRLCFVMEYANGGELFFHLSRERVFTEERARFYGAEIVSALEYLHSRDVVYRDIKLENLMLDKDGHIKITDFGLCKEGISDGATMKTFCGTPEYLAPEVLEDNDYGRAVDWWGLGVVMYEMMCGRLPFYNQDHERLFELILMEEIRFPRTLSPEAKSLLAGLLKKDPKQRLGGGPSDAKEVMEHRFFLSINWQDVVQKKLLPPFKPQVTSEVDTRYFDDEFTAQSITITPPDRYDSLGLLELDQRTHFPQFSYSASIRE

CCN(CC)CCCCNc1ncc2cc(-c3cc(OC)cc(OC)c3)c(NC(=O)NC(C)(C)C)nc2n1
% of control [1]: 100%

COCCN1CCC(c2cc(CN(C)C(=O)c3cccc(Oc4ccccc4)c3)ccn2)CC1
% activity ([2]; at 1 µM): > 95%
% activity ([2]; at 10 µM): > 90%

C=CC(=O)Nc1cccc(C(=O)Nc2ccc(Nc3cc(-c4[nH]c(SC)nc4C)ccn3)cc2)c1
% of control ([3]; at 1 µM): 23%
% of control ([3]; at 5 µM): 6%

C=CC(=O)Nc1ccc(C(=O)Nc2[nH]nc3c2CN(C(=O)N[C@H](CN(C)C)c2ccccc2)C3(C)C)cc1
% of engagement [4]: 7.2%

CCc1cccc(CC)c1NC(=O)c1nn(C)c2c1CCc1cnc(Nc3ccc(C(=O)NC4CCN(C)CC4)cc3OC(F)(F)F)nc1-2
IC50 [5]: > 10 µM

CC[C@@H]1[C@H](F)C(=O)N[C@@H]1COc1nccc2cc(C(N)=O)c(OC)cc12 [ZIMLOVISERTIB]
% of inhibition [6]: 7.9%
% of inhibition [7]: -43.2%
% of inhibition [8]: 21.9%

CNC(=O)Nc1ccc(-c2nc(N3CC4CCC(C3)O4)c3cnn(C4CCC5(CC4)OCCO5)c3n2)cc1
% of control [9]: 77%
% of inhibition [10]: 7%

Cc1cc(F)c(C(=O)Nc2cccc(-c3nncn3C(C)C)n2)cc1-n1cnc(C2CC2)c1
% of control [11]: 89%

C=CC(=O)Nc1cc(-n2c(=O)ccc3cnc4ccc(-c5ccc(NS(C)(=O)=O)cc5)cc4c32)ccc1C
% of control ([12]; at 1 µM): 100%
% of control ([12]; at 10 µM): 80%
